Measured values: ChEMBL document CHEMBL1123199, “Synthesis and structure-activity relationships of naftifine-related allylamine antimycotics” (1986)
In brackets after ≈: the same amount, converted by molar mass. Blank lines part the entries; values can stand above or below the molecule they belong to.

Experiments:
Sporothrix schenckii = assay: Antifungal activity measured against Sporothrix schenck ii.; type: functional
Epidermophyton floccosum = assay: Antifungal activity against Epidermophyton floccosum.; type: functional
Aspergillus fumigatus = assay: Antifungal activity measured against Aspergillus fumigatus; type: functional
Microsporum canis = assay: Antifungal activity against Microsporum canis; type: functional
Candida parapsilosis [1] = assay: Antifungal activity against Candida parapsilosis.; type: functional; conditions: Lodderomyces parapsilosis
[2] = Antifungal activity against Trichophyton mentagrophytes.; type: functional, Arthroderma benhamiae; conditions: Trichophyton benhamiae
Cavia porcellus [3] = assay: In vivo antifungal activity by topical treatment of guinea pig dermatophytosis caused by Trichophyton mentagrophytes at a dose of 0.5%; type: functional
Cavia porcellus [4] = assay: In vivo antifungal activity by topical treatment of guinea pig dermatophytosis caused by Trichophyton mentagrophytes at a dose of 0.1%; type: functional
Trichophyton benhamiae = assay: Antifungal activity measured against Trichophyton mentagrophytes; type: functional, Arthroderma benhamiae
Cavia porcellus [5] = assay: In vivo antifungal activity by topical treatment of guinea pig dermatophytosis caused by Trichophyton mentagrophytes at a dose of 2%; type: functional
Trichophyton quinckeanum = assay: Antifungal activity was measured against Trichophyton mentagrophytes.; type: functional, ptrichophyton mentagrophytes
Candida parapsilosis [6] = assay: Antifungal activity was measured against Candida parapsilosis.; conditions: Lodderomyces parapsilosis

MIC (Sporothrix schenckii): > 100 mg/L
MIC (Epidermophyton floccosum): > 100 mg/L
MIC (Aspergillus fumigatus): > 100 mg/L
MIC (Microsporum canis): > 100 mg/L
MIC (Candida parapsilosis [1]): > 100 mg/L
MIC [2]: > 100 mg/L
Structure (SMILES): CN(C/C=C/c1ccccc1)Cc1ccccc1

MIC (Sporothrix schenckii): 25 mg/L (≈ 82.9 µM)
MIC (Epidermophyton floccosum): 25 mg/L (≈ 82.9 µM)
MIC (Aspergillus fumigatus): 100 mg/L (≈ 332 µM)
MIC (Microsporum canis): 50 mg/L (≈ 166 µM)
MIC (Candida parapsilosis [1]): 50 mg/L (≈ 166 µM)
MIC [2]: 12.5 mg/L (≈ 41.5 µM)
Structure (SMILES): CN(C/C=C/c1ccccc1)CCc1cccc2ccccc12

MIC (Sporothrix schenckii): 50 mg/L (≈ 158 µM)
MIC (Epidermophyton floccosum): ≤ 1.6 mg/L
MIC (Aspergillus fumigatus): > 100 mg/L
MIC (Microsporum canis): ≤ 1.6 mg/L
MIC (Candida parapsilosis [1]): 50 mg/L (≈ 158 µM)
MIC [2]: ≤ 1.6 mg/L
Structure (SMILES): COc1ccc(CN(C)C/C=C/c2ccccc2)c2ccccc12
Activity (Cavia porcellus [3]): 41%
Activity (Cavia porcellus [5]): 65%

MIC (Sporothrix schenckii): 3.1 mg/L (≈ 10.3 µM)
MIC (Epidermophyton floccosum): 0.2 mg/L (≈ 0.663 µM)
MIC (Aspergillus fumigatus): > 100 mg/L
MIC (Microsporum canis): 0.4 mg/L (≈ 1.33 µM)
MIC (Candida parapsilosis [1]): 12.5 mg/L (≈ 41.5 µM)
MIC [2]: 0.1 mg/L (≈ 0.332 µM)
Structure (SMILES): Cc1ccc(CN(C)C/C=C/c2ccccc2)c2ccccc12

MIC (Sporothrix schenckii): 12.5 mg/L (≈ 43.3 µM)
MIC (Epidermophyton floccosum): 1.6 mg/L (≈ 5.55 µM)
MIC (Aspergillus fumigatus): > 100 mg/L
MIC (Microsporum canis): 1.6 mg/L (≈ 5.55 µM)
MIC (Trichophyton benhamiae): 1.6 mg/L (≈ 5.55 µM)
MIC (Candida parapsilosis [1]): 2.5 mg/L (≈ 8.67 µM)
Structure (SMILES): CN(C/C=C/c1ccccc1)Cc1ccnc2ccccc12
Activity (Cavia porcellus [3]): 0%
Activity (Cavia porcellus [4]): 0%
Activity (Cavia porcellus [5]): 3%

MIC (Sporothrix schenckii): 100 mg/L (≈ 330 µM)
MIC (Epidermophyton floccosum): 50 mg/L (≈ 165 µM)
MIC (Aspergillus fumigatus): > 100 mg/L
MIC (Microsporum canis): 50 mg/L (≈ 165 µM)
MIC (Candida parapsilosis [1]): > 100 mg/L
MIC [2]: 25 mg/L (≈ 82.4 µM)
Structure (SMILES): CN(C/C=C/c1ccccc1)Cc1c(O)ccc2ccccc12

MIC (Sporothrix schenckii): 1.6 mg/L (≈ 5.57 µM)
MIC (Epidermophyton floccosum): 0.1 mg/L (≈ 0.348 µM)
MIC (Aspergillus fumigatus): 12.5 mg/L (≈ 43.5 µM)
MIC (Microsporum canis): 0.1 mg/L (≈ 0.348 µM)
MIC [2]: 0.05 mg/L (≈ 0.174 µM)
MIC (Candida parapsilosis [6]): 1.6 mg/L (≈ 5.57 µM)
Structure (SMILES): CN(C/C=C/c1ccccc1)Cc1cccc2ccccc12 [NAFTIFINE]
Activity (Cavia porcellus [3]): 88%
Activity (Cavia porcellus [4]): 35%
Activity (Cavia porcellus [5]): 100%

Further lines, the molecule ahead of its results:

Structure (SMILES): CN(C/C=C/CCc1ccccc1)Cc1cccc2ccccc12
MIC (Sporothrix schenckii): > 100 mg/L
MIC (Epidermophyton floccosum): 12.5 mg/L (≈ 39.6 µM)
MIC (Aspergillus fumigatus): > 100 mg/L
MIC (Microsporum canis): 12.5 mg/L (≈ 39.6 µM)
MIC (Candida parapsilosis [1]): > 100 mg/L
MIC [2]: 1.6 mg/L (≈ 5.07 µM)

Structure (SMILES): C(=C\c1ccccc1)/COCc1cccc2ccccc12
MIC (Sporothrix schenckii): > 100 mg/L
MIC (Epidermophyton floccosum): > 100 mg/L
MIC (Aspergillus fumigatus): > 100 mg/L
MIC (Microsporum canis): > 100 mg/L
MIC (Candida parapsilosis [1]): > 100 mg/L
MIC [2]: 3.1 mg/L (≈ 11.3 µM)

Structure (SMILES): CN(C/C=C/c1ccccc1)C(=O)c1cccc2ccccc12
MIC (Sporothrix schenckii): 25 mg/L (≈ 82.9 µM)
MIC (Epidermophyton floccosum): ≤ 1.6 mg/L
Activity (Cavia porcellus [3]): 0%
MIC (Aspergillus fumigatus): 12.5 mg/L (≈ 41.5 µM)
MIC (Microsporum canis): ≤ 1.6 mg/L
Activity (Cavia porcellus [4]): 0%
MIC (Trichophyton benhamiae): ≤ 1.6 mg/L
MIC (Candida parapsilosis [1]): > 100 mg/L
Activity (Cavia porcellus [5]): 60%

Structure (SMILES): CCCCCOC(=O)/C=C/CN(C)Cc1cccc2ccccc12
MIC (Sporothrix schenckii): < 1.6 mg/L
MIC (Epidermophyton floccosum): < 1.6 mg/L
Activity (Cavia porcellus [3]): 0%
MIC (Aspergillus fumigatus): 50 mg/L (≈ 154 µM)
MIC (Microsporum canis): < 1.6 mg/L
Activity (Cavia porcellus [4]): 0%
MIC (Trichophyton benhamiae): < 1.6 mg/L
MIC (Candida parapsilosis [1]): 25 mg/L (≈ 76.8 µM)
Activity (Cavia porcellus [5]): 10%

Structure (SMILES): CN(C/C=C/c1ccccc1)C1CCCc2ccccc21 (centres undefined)
MIC (Sporothrix schenckii): 100 mg/L (≈ 360 µM)
MIC (Epidermophyton floccosum): 50 mg/L (≈ 180 µM)
MIC (Aspergillus fumigatus): > 100 mg/L
MIC (Microsporum canis): 50 mg/L (≈ 180 µM)
MIC (Candida parapsilosis [1]): > 100 mg/L
MIC [2]: 12.5 mg/L (≈ 45.1 µM)

Structure (SMILES): CN(CCCc1ccccc1)Cc1cccc2ccccc12
MIC (Sporothrix schenckii): > 100 mg/L
MIC (Epidermophyton floccosum): > 100 mg/L
MIC (Aspergillus fumigatus): > 100 mg/L
MIC (Microsporum canis): > 100 mg/L
MIC (Candida parapsilosis [1]): > 100 mg/L
MIC [2]: 12.5 mg/L (≈ 43.2 µM)

Structure (SMILES): CN(C/C=C/c1ccc(F)cc1)Cc1cccc2ccccc12
MIC (Sporothrix schenckii): 1.6 mg/L (≈ 5.24 µM)
MIC (Epidermophyton floccosum): 0.1 mg/L (≈ 0.327 µM)
Activity (Cavia porcellus [3]): 82%
MIC (Aspergillus fumigatus): 25 mg/L (≈ 81.9 µM)
MIC (Microsporum canis): 0.2 mg/L (≈ 0.655 µM)
Activity (Cavia porcellus [4]): 21%
MIC (Trichophyton benhamiae): 0.1 mg/L (≈ 0.327 µM)
MIC (Candida parapsilosis [1]): 3.1 mg/L (≈ 10.2 µM)
Activity (Cavia porcellus [5]): 100%

Structure (SMILES): CN(C/C=C/c1ccsc1)Cc1cccc2ccccc12
MIC (Sporothrix schenckii): 3.1 mg/L (≈ 10.6 µM)
MIC (Epidermophyton floccosum): 0.1 mg/L (≈ 0.341 µM)
Activity (Cavia porcellus [3]): 47%
MIC (Aspergillus fumigatus): 50 mg/L (≈ 170 µM)
MIC (Microsporum canis): 0.2 mg/L (≈ 0.682 µM)
Activity (Cavia porcellus [4]): 7%
MIC (Trichophyton benhamiae): 0.1 mg/L (≈ 0.341 µM)
MIC (Candida parapsilosis [1]): 6.2 mg/L (≈ 21.1 µM)
Activity (Cavia porcellus [5]): 100%

Structure (SMILES): CN(C/C=C/C1=CCCCCC1)Cc1cccc2ccccc12
MIC (Sporothrix schenckii): 0.8 mg/L (≈ 2.62 µM)
MIC (Epidermophyton floccosum): 0.1 mg/L (≈ 0.327 µM)
Activity (Cavia porcellus [3]): 85%
MIC (Aspergillus fumigatus): 25 mg/L (≈ 81.8 µM)
MIC (Microsporum canis): 0.05 mg/L (≈ 0.164 µM)
Activity (Cavia porcellus [4]): 29%
MIC (Trichophyton benhamiae): 0.05 mg/L (≈ 0.164 µM)
MIC (Candida parapsilosis [1]): 1.6 mg/L (≈ 5.24 µM)
Activity (Cavia porcellus [5]): 100%

Structure (SMILES): CN(C/C=C/c1ccccc1)CC1CCCc2ccccc21 (centres undefined)
MIC (Sporothrix schenckii): 100 mg/L (≈ 343 µM)
MIC (Epidermophyton floccosum): 50 mg/L (≈ 172 µM)
MIC (Aspergillus fumigatus): > 100 mg/L
MIC (Microsporum canis): 50 mg/L (≈ 172 µM)
MIC (Candida parapsilosis [1]): > 100 mg/L
MIC [2]: 6.2 mg/L (≈ 21.3 µM)

Structure (SMILES): CN(C/C=C/Cc1ccccc1)Cc1cccc2ccccc12
MIC (Sporothrix schenckii): > 100 mg/L
MIC (Epidermophyton floccosum): 50 mg/L (≈ 166 µM)
MIC (Aspergillus fumigatus): > 100 mg/L
MIC (Microsporum canis): 50 mg/L (≈ 166 µM)
MIC (Candida parapsilosis [1]): > 100 mg/L
MIC [2]: 50 mg/L (≈ 166 µM)

Structure (SMILES): CN(C/C=C/c1ccccc1F)Cc1cccc2ccccc12
MIC (Sporothrix schenckii): 6.25 mg/L (≈ 20.5 µM)
MIC (Epidermophyton floccosum): ≤ 1.6 mg/L
Activity (Cavia porcellus [3]): 59%
MIC (Aspergillus fumigatus): 100 mg/L (≈ 327 µM)
MIC (Microsporum canis): ≤ 1.6 mg/L
Activity (Cavia porcellus [4]): 0%
MIC (Candida parapsilosis [1]): 12.5 mg/L (≈ 40.9 µM)
MIC (Trichophyton quinckeanum): ≤ 1.6 mg/L
Activity (Cavia porcellus [5]): 94%

Structure (SMILES): CCOC(=O)/C=C/CN(C)Cc1cccc2ccccc12
MIC (Sporothrix schenckii): 12.5 mg/L (≈ 44.1 µM)
MIC (Epidermophyton floccosum): 3.1 mg/L (≈ 10.9 µM)
Activity (Cavia porcellus [3]): 0%
MIC (Aspergillus fumigatus): > 100 mg/L
MIC (Microsporum canis): 6.25 mg/L (≈ 22.1 µM)
Activity (Cavia porcellus [4]): 0%
MIC (Trichophyton benhamiae): < 1.6 mg/L
MIC (Candida parapsilosis [1]): > 100 mg/L
Activity (Cavia porcellus [5]): 16%
